Experimental data from ChEMBL document CHEMBL1201862, “PubChem BioAssay data set” (2004).
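Protocol summary: plate cells (96-well), add compound at 5 concentrations, incubate 48 h, interpolate endpoints linearly. Here, GI50 denotes the concentration required for 50% inhibition of growth.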 Calls of active or inactive are those of the source. No stated cut-off is given here; in the data, active = GI50 up to about 1.1 µM and inactive = higher.

Experiments:
Test in all cases: NCI tumour cell line growth inhibition, 48 h
KM-20L2 = tested on: KM-20L2
LXFL 529 = tested on: LXFL 529
DMS-114 = tested on: DMS-114
SNB-78 = tested on: SNB-78
RXF 631 = tested on: RXF 631
HOP-18 = tested on: HOP-18
T47D = tested on: T47D
MDA-MB-231 = tested on: MDA-MB-231
Hs-578T = tested on: Hs-578T

| Structure (SMILES) | GI50 (KM-20L2) | GI50 (LXFL 529) | GI50 (DMS-114) | GI50 (SNB-78) | GI50 (RXF 631) | GI50 (HOP-18) | GI50 (T47D) | GI50 (MDA-MB-231) | GI50 (Hs-578T) |
| --- | --- | --- | --- | --- | --- | --- | --- | --- | --- |
| COc1cccc(C2N3CCCCC3[C@@H]3c4[nH]c5ccccc5c4CCN23)c1OC (some centres undefined) | 14.3 µM (inactive) | 15.2 µM (inactive) | 15.5 µM (inactive) | 15.7 µM (inactive) | 16.4 µM (inactive) | 17 µM (inactive) | – | – | – |
| CC/C(=N/O)c1ccc2[nH]c3c(C)cc([N+](=O)[O-])c(C)c3c2c1 | – | – | > 100 µM (inactive) | > 100 µM (inactive) | – | > 100 µM (inactive) | – | – | – |
| C/C=C/C1(NS(=O)(=O)c2ccc(C)cc2)CCC(C(C)(C)C)CC1 (centres undefined) | 20.1 µM (inactive) | 37.5 µM (inactive) | 27 µM (inactive) | 25.6 µM (inactive) | 24.7 µM (inactive) | 34.9 µM (inactive) | – | – | – |
| CC1(C)C(=NNC(=S)NN)C(C)(C)C1=NNC(=S)NN | > 100 µM (inactive) | – | > 100 µM (inactive) | – | > 100 µM (inactive) | – | – | – | – |
| CN[C@@H](C)[C@@H](N)c1ccccc1 | – | > 100 µM (inactive) | – | > 100 µM (inactive) | > 100 µM (inactive) | > 100 µM (inactive) | – | – | – |
| Cc1cc2c(C=O)n[nH]c2c(C#N)c1C | 65.9 µM (inactive) | 34.7 µM (inactive) | 26.5 µM (inactive) | 95.3 µM (inactive) | 58.5 µM (inactive) | – | – | – | – |
| Nc1ccc2nc(NCc3ccc(F)cc3)cnc2c1 | > 100 µM (inactive) | > 100 µM (inactive) | 75.5 µM (inactive) | 75.7 µM (inactive) | – | – | – | – | – |
| COc1ccc(CC2NCCc3cc(OC)c(OC)cc32)cc1 (centres undefined) | > 100 µM (inactive) | > 100 µM (inactive) | 59.6 µM (inactive) | > 100 µM (inactive) | > 100 µM (inactive) | > 100 µM (inactive) | – | – | – |
| CC1=C(C(=O)Nc2ccccc2C)C(c2ccccc2O)C(C(=O)Nc2ccccc2C)=C(C)N1 | 20.2 µM (inactive) | 20.1 µM (inactive) | 22 µM (inactive) | 29.5 µM (inactive) | – | 17.9 µM (inactive) | – | – | – |
| CCOC(=O)NC1C2CC(=O)OC(O2)C1OC(C)=O (centres undefined) | > 100 µM (inactive) | > 100 µM (inactive) | – | > 100 µM (inactive) | > 100 µM (inactive) | > 100 µM (inactive) | – | – | – |
| Cc1c2nc3ccccc3sc-2cc(=O)c1C | > 72.6 µM (inactive) | 41 µM (inactive) | 10.2 µM (inactive) | > 24.3 µM (inactive) | – | > 100 µM (inactive) | – | – | – |
| CCOC(=O)COc1cccc2c1C(=O)CCO2 | > 100 µM (inactive) | > 100 µM (inactive) | > 100 µM (inactive) | > 100 µM (inactive) | > 100 µM (inactive) | – | – | – | – |
| Clc1ccc(-c2c(C3=NCCN3)nnn2-c2ccc(Cl)cc2)cc1 | 15.7 µM (inactive) | 29.4 µM (inactive) | 16.4 µM (inactive) | 18.8 µM (inactive) | – | > 100 µM (inactive) | – | – | – |
| N#CC(C(=N/O)/C(=N\O)C(C#N)c1ccccc1)c1ccccc1 (centres undefined) | > 100 µM (inactive) | > 100 µM (inactive) | > 100 µM (inactive) | > 100 µM (inactive) | > 100 µM (inactive) | > 100 µM (inactive) | – | – | – |
| N#CC(Sc1ccccc1)C(N)=O (centres undefined) | > 100 µM (inactive) | > 100 µM (inactive) | > 100 µM (inactive) | > 100 µM (inactive) | > 100 µM (inactive) | > 100 µM (inactive) | – | – | – |
| O=C(O)/C(=C\c1ccccc1Cl)S(=O)(=O)c1ccccc1 | > 100 µM (inactive) | > 100 µM (inactive) | > 100 µM (inactive) | > 100 µM (inactive) | > 100 µM (inactive) | > 100 µM (inactive) | – | – | – |

| Structure (SMILES) | GI50 (KM-20L2) | GI50 (LXFL 529) | GI50 (DMS-114) | GI50 (SNB-78) | GI50 (RXF 631) | GI50 (HOP-18) | GI50 (T47D) | GI50 (MDA-MB-231) | GI50 (Hs-578T) |
| --- | --- | --- | --- | --- | --- | --- | --- | --- | --- |
| CCCCNS(=O)(=O)c1ccc(-c2ccc3c(c2)-c2ccc(S(=O)(=O)NCCCC)cc2S3(=O)=O)cc1 | 4.15 µM (inactive) | 13.2 µM (inactive) | 7.52 µM (inactive) | 12.4 µM (inactive) | – | 20.7 µM (inactive) | – | – | – |
| CCN(CC)C(=O)c1cccc2c(OC)ccc(OC)c12 | > 100 µM (inactive) | > 100 µM (inactive) | > 100 µM (inactive) | – | – | > 100 µM (inactive) | – | – | – |
| O=C(CCc1cc(-c2ccccc2)[nH]c(=S)n1)Nc1ccccc1[N+](=O)[O-] | > 100 µM (inactive) | > 100 µM (inactive) | > 100 µM (inactive) | > 100 µM (inactive) | > 100 µM (inactive) | > 100 µM (inactive) | – | – | – |
| CC(C)(C)OC(=O)N[C@H]1CC2(C=C(Cl)C(=O)C(Cl)=C2)OC1=O | 20.4 µM (inactive) | 11.4 µM (inactive) | – | 19.6 µM (inactive) | 16.6 µM (inactive) | 16.5 µM (inactive) | 14.9 µM (inactive) | 17.1 µM (inactive) | 26.4 µM (inactive) |
| c1ccc2c(OCCSCCCCCCCCCCSCCOc3cccc4ccccc34)cccc2c1 | > 100 µM (inactive) | – | > 100 µM (inactive) | > 100 µM (inactive) | – | > 100 µM (inactive) | – | – | – |
| Nc1ncnc2c1ncn2C1OC(CSC(F)(F)F)C(O)C1O (centres undefined) | > 100 µM (inactive) | > 100 µM (inactive) | > 100 µM (inactive) | > 100 µM (inactive) | – | > 100 µM (inactive) | – | – | – |
| O=C(CC(=O)c1cccc([N+](=O)[O-])c1)C(=O)Nc1ccccc1 | > 100 µM (inactive) | > 100 µM (inactive) | > 100 µM (inactive) | > 100 µM (inactive) | > 100 µM (inactive) | > 100 µM (inactive) | – | – | – |
| C[Si](C)(C)/C(Br)=C\CCN1C(=O)CCC1=O | > 100 µM (inactive) | > 100 µM (inactive) | > 35.2 µM (inactive) | > 100 µM (inactive) | > 100 µM (inactive) | > 100 µM (inactive) | – | – | – |
| COc1ccc2cc3n(c2c1)CCc1cc(OC)c(OC)cc1-3 | > 100 µM (inactive) | > 100 µM (inactive) | > 100 µM (inactive) | > 100 µM (inactive) | > 100 µM (inactive) | > 100 µM (inactive) | – | – | – |
| Nc1nc2sc3ccccc3c(=O)n2n1 | > 100 µM (inactive) | > 100 µM (inactive) | > 100 µM (inactive) | > 100 µM (inactive) | – | > 100 µM (inactive) | – | – | – |
| O=C1c2ccccc2C(=O)N1C/C=N/NS(=O)(=O)c1ccc(Cl)cc1 | > 100 µM (inactive) | > 100 µM (inactive) | > 100 µM (inactive) | – | > 100 µM (inactive) | – | – | – | – |
| C[C@@H](NC1CCCC[C@H]1O)c1ccccc1 (some centres undefined) | > 100 µM (inactive) | – | – | > 100 µM (inactive) | – | > 100 µM (inactive) | – | – | – |
| COc1cccc(-c2cc(O)c3cc4c(cc3n2)OCO4)c1 | 0.19 µM (active) | 0.0598 µM (active) | 0.232 µM (active) | 0.195 µM (active) | 0.442 µM (active) | 0.638 µM (active) | – | – | – |
| CCN(CC)CCOc1ccc(C(O)(Cc2ccc(OC)cc2)c2ccccc2)cc1 (centres undefined) | 3.24 µM (inactive) | 17 µM (inactive) | 14.9 µM (inactive) | 24.5 µM (inactive) | – | – | – | – | – |
| CCCCCCCCCCCCCC(=O)O[C@H]1CC[C@H](NC(=O)[C@H](OC)[C@H](O)[C@@H](O)[C@H](O)/C=C/C(C)C)C(=O)N(C)C1 [BENGAMIDE B] | 0.00577 µM (active) | 0.0114 µM (active) | 0.00284 µM (active) | 0.173 µM (active) | < 0.0015 µM (active) | 0.134 µM (active) | – | – | – |
| O=C(O)/C=C/c1ccc(O)c(O)c1 [CAFFEIC ACID] | > 100 µM (inactive) | > 100 µM (inactive) | > 100 µM (inactive) | > 100 µM (inactive) | > 100 µM (inactive) | > 100 µM (inactive) | – | – | – |
